Laboratory results taken from paper PMC8011784, “Chronic peptide-based GIP receptor inhibition exhibits modest glucose metabolic changes in mice when administered either alone or combined with GLP-1 agonism” (PLoS ONE, 2021).

How the values were obtained:
DIO mice [1] = assay: Chronic GIPA-2 study: insulin tolerance test (ITT) in DIO mice; type: in vivo, mouse; details: day 24; insulin 0.5 U/kg ip one hour after daily dose; liraglutide 0.2 mg/kg SC, GIPA-2 10 mg/kg SC; n = 10
Experimental: For studying the chronic effects of GIPA-2, male C57BL/6JRj mice (n = 40) were fed a HFD (SSNIFF® diet #12492) for 43 weeks. DIO mice were randomized (n = 10 per group) based on baseline blood glucose and body weight. Liraglutide was dissolved in PBS plus 0.1% BSA (Vehicle1) and GIPA-2 in PBS (vehicle 2). Mice received one of the following four treatments daily for 28 days while still maintained on HFD: (1) vehicle 1 (SC) and vehicle 2 (SC); (2) 0.2 mg/kg liraglutide (SC) and vehicle 2; (3) vehicle 1 (SC) and 10 mg/kg GIPA-2 (SC); and (4) 0.2 mg/kg liraglutide (SC) plus 10 mg/kg GIPA-2 (SC). […] Fasted (4 hrs) blood glucose and insulin were measured on study day -4, 10 and 26. […] Blood glucose was measured before their daily dosing and at 0, 15, 30 60, 120, 180 and 240 min after glucose administration. […] Blood glucose was measured before their daily dosing and at 0, 15, 30 60, 120, 180 min after glucose administration. […]
Fig 3 Effects of GIPA-1 and GIPA-2 on oral glucose tolerance and insulin responses in DIO mice. […] Statistical analysis was calculated using two-way ANOVA with Tukey’s post-hoc test and one-way ANOVA with Dunnett’s post-hoc test. *: p< 0.05, **: p < 0.01, ***: p < 0.001, ****: p<0.0001 compared to vehicle.

DIO mice [2] = assay: Chronic GIPA-1 study: fasting blood glucose, plasma insulin and HOMA-IR in DIO mice; type: in vivo, mouse; details: 4 h fasted, liraglutide 0.2 mg/kg/day SC, GIPA-1 ~4.5 mg/kg/day minipump, n = 10, vs vehicle
Experimental: 23-week-old male C57BL/6JRj mice (n = 40), fed a HFD (SSNIFF® diet #12492[60% fat, 20% protein, 20% carbohydrate]) for 14 weeks, were distributed into 4 test groups and received daily either vehicle, liraglutide (0.2 mg/kg/day), GIPA-1 (~4.5 mg/kg/day) or liraglutide + GIPA-1 for 4 weeks while still maintained on HFD. GIPA-1 was delivered using minipumps in order to achieve sufficient GIPR antagonism based on the properties of this peptide (Fig 2A). Liraglutide was dissolved in phosphate-buffered saline (PBS) plus 0.1% bovine serum albumin (BSA) (vehicle 1) and GIPA-1 in DMSO/propylene glycol (50/50 volume per volume) (vehicle 2). […] Fasted (4 hrs) blood glucose and insulin levels were measured on study day -3, 14 and 27. […] Blood glucose was measured before their daily dosing and at 0, 15, 30 60, 120, 180 min after glucose administration. Plasma insulin was measured at 0 and 15 min. Whole body weight and food intake were measured throughout the study period. […]
Fasting blood glucose was measured using a BIOSEN c-Line glucose meter (EKF-Diagnostics), insulin was measured using the Meso Scale Diagnostics platform, TG and TC were measured using commercial kits (Roche Diagnostics) on the Cobas C-501 autoanalyzer (Roche), and FFA levels were measured using a Wako Chemicals kit on the Cobas C-501 autoanalyzer, all according to the manufacturers’ instructions. […]

In the case of liraglutide, the “insulin sensitivity (ITT)” value (DIO mice [1]) is reported as “improved insulin sensitivity produced by liraglutide”, the fasting blood glucose (DIO mice [2]; days 14 and 27) is reported as “significant reductions for the duration of the study” and the fasting plasma insulin (DIO mice [2]) is reported as “reduced in both the liraglutide and combination groups. This was significant for the combination, but not for liraglutide monotherapy”.
